Active and inactive are the calls of the source. The rule behind the calls is not given here.

This experiment concerns Cystic fibrosis transmembrane conductance regulator (Homo sapiens), P13569 [F508del]. The experiment can be described thus: Agonist activity at human CFTR deltaF508 mutant expressed in rat FRT cells assessed as forskolin-stimulated […] by patch-clamp method. Format: functional, cell-based. A general note: cAMP levels reflect the balance of adenylyl cyclase and phosphodiesterase activity.
Sequence of Cystic fibrosis transmembrane conductance regulator (Homo sapiens), P13569 [F508del] (P13569 as listed by the source): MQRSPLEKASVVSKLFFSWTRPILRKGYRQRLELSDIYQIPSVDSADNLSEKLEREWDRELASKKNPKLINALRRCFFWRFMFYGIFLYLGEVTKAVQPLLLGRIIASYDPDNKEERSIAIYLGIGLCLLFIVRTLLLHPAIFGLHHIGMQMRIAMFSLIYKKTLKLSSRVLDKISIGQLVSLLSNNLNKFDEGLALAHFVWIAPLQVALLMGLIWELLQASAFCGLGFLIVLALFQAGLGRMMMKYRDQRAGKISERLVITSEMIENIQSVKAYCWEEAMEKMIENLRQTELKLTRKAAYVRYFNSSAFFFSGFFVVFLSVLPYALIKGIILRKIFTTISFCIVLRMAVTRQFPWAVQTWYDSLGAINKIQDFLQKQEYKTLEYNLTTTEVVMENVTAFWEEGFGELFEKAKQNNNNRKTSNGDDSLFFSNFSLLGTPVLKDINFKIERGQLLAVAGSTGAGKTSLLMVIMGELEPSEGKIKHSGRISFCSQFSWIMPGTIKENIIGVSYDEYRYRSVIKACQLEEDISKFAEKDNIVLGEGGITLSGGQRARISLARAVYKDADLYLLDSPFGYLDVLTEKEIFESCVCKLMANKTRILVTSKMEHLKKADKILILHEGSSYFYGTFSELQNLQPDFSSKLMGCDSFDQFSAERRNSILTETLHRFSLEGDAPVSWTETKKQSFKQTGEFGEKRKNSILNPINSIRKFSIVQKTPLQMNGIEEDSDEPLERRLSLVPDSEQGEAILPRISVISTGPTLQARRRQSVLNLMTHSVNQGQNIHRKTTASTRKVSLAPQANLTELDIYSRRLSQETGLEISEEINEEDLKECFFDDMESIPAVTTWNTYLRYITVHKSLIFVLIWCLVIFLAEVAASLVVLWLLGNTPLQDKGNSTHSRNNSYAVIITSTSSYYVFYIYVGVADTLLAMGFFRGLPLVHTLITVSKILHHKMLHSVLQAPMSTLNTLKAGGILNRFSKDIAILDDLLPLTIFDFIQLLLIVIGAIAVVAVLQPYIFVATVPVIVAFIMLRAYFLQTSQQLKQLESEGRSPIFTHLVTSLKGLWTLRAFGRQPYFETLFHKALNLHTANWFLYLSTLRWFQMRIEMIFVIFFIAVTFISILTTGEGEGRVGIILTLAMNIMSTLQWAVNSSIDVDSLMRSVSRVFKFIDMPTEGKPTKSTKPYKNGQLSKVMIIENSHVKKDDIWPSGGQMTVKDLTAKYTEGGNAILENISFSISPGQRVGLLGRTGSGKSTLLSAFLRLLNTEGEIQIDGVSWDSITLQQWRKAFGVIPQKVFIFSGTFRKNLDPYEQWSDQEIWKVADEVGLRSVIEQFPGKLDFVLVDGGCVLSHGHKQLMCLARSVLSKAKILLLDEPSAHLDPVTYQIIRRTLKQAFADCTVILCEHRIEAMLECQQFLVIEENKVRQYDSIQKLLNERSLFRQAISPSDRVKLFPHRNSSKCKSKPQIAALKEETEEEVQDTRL
Consider `Cc1nc(NC(=O)c2ccccc2)sc1-c1csc(Nc2cc(Cl)ccc2OCCOCCOCC(=O)O)n1`, for which the result was Active.

On to `CN(C(=O)Cc1c[nH]c2ccccc12)[C@H](C(=O)Nc1ccc(CO)cc1)c1ccccc1`, for which the result was Active.

On to `Cc1nc(NC(=O)c2ccccc2)sc1-c1csc(Nc2cc(Cl)ccc2OCCOCCOCC(=O)OCc2ccc(NC(=O)[C@H](c3ccccc3)N(C)C(=O)Cc3c[nH]c4ccccc34)cc2)n1`, for which the outcome was inactive.
